system: mature adipocytes (differentiated 3T3-L1 cells); assay: Experiment 9-2: apoptosis of mature adipocytes (annexin V/PI flow cytometry), resveratrol with lipophilic drugs; type: cell-based; settings: 50 ppm total drug (complexes 20 ppm resveratrol + 30 ppm second drug), 24 hours; DMSO control 4.9±2.5%
Protocol: A DMSO control group cell culture medium, a resveratrol cell culture medium, a puerarin cell culture medium, a quercetin cell culture medium, a resveratrol-puerarin complex cell culture medium, and a resveratrol-quercetin complex cell culture medium were prepared as follows: The DMSO control group cell culture medium: DMSO was mixed with an appropriate amount of sterile water to obtain a 0.5% DMSO solution. The 0.5% DMSO solution was mixed with a cell culture medium (product name: Dulbecco's Modified Eagle Medium, purchased from Gibco) to prepare the DMSO control group cell culture medium, wherein, the volume ratio between the 0.5% DMSO solution and the cell culture medium is 1:1000. The resveratrol cell culture medium: resveratrol was mixed with an appropriate amount of 0.5% DMSO solution to obtain a resveratrol solution. The resveratrol solution was mixed with a cell culture medium (product name: Dulbecco's Modified Eagle Medium, purchased from Gibco) to prepare the resveratrol cell culture medium containing 50 ppm of resveratrol, wherein, the volume ratio between the resveratrol solution and the cell culture medium is 1:1000. The puerarin cell culture medium: puerarin (purchased from Sigma-Aldrich) was mixed with an appropriate amount of 0.5% DMSO solution to obtain a puerarin solution. The puerarin solution was mixed with a cell culture medium to prepare the puerarin cell culture medium containing 50 ppm of puerarin, wherein, the volume ratio between the puerarin solution and the cell culture medium is 1:1000. The quercetin cell culture medium: quercetin (purchased from Sigma-Aldrich) was mixed with an appropriate amount of 0.5% DMSO solution to obtain a quercetin solution. […] Annexin V protein (purchased from eBioscience) and propidium iodide (PI; purchased from eBioscience) were mixed with the cells in each group for a period of time, and then the percentage of cells labeled by annexin V protein and PI in each group was analyzed by flow cytometry to assess the percentage of mature adipocytes undergoing apoptosis. […]

`O=c1c(-c2ccc(O)cc2)coc2c([C@@H]3O[C@H](CO)[C@@H](O)[C@H](O)[C@H]3O)c(O)ccc12` [puerarin] and `O=c1c(O)c(-c2ccc(O)c(O)c2)oc2cc(O)cc(O)c12` [quercetin] are within error of each other in “percentage of apoptotic cells” value: 7.2±3.7% for the first, 5.9±2.6% for the second.

In the case of `Oc1ccc(C=Cc2cc(O)cc(O)c2)cc1` [resveratrol], the “percentage of apoptotic cells” value is reported as 19.1±1.1%.

system: mature adipocytes (differentiated 3T3-L1 cells); assay: Experiment 10-2: apoptosis of mature adipocytes (annexin V/PI flow cytometry), resveratrol with hydrophilic drugs; type: cell-based; settings: 50 ppm total drug (complexes 20 ppm resveratrol + 30 ppm second drug), 24 hours; sterile water control 9.6±1.5%
Protocol: A sterile water control group cell culture medium, a resveratrol cell culture medium, a caffeine cell culture medium, a L-carnitine cell culture medium, a resveratrol-caffeine complex cell culture medium, and a resveratrol-L-carnitine complex cell culture medium were prepared as follows: The sterile water control group cell culture medium: Sterile water was mixed with a cell culture medium to prepare the sterile water control group cell culture medium, wherein, the volume ratio between the sterile water and the cell culture medium is 1:1000. The resveratrol cell culture medium: it is the same method as the preparation of the resveratrol cell culture medium in Experiment 9-2. The caffeine cell culture medium: caffeine (purchased from Sigma-Aldrich) was mixed with an appropriate amount of sterile water to obtain a caffeine solution. The caffeine solution was mixed with a cell culture medium to prepare the caffeine cell culture medium containing 50 ppm of caffeine, wherein, the volume ratio between the caffeine solution and the cell culture medium is 1:1000. The L-carnitine cell culture medium: L-carnitine (purchased from Sigma-Aldrich) was mixed with an appropriate amount of sterile water to obtain a L-carnitine solution. The L-carnitine solution was mixed with a cell culture medium to prepare the L-carnitine cell culture medium containing 50 ppm of L-carnitine, wherein, the volume ratio between the L-carnitine solution and the cell culture medium is 1:1000. The resveratrol-caffeine complex cell culture medium: resveratrol, caffeine, and an appropriate amount of sterile water were mixed to obtain a resveratrol-caffeine complex solution. […] Annexin V protein (purchased from eBioscience) and propidium iodide (PI; purchased from eBioscience) were mixed with the cells in each group for a period of time, and then the percentage of cells labeled by annexin V protein and PI in each group was analyzed by flow cytometry to assess the percentage of mature adipocytes undergoing apoptosis.

`C[N+](C)(C)C[C@H](O)CC(=O)[O-]` [L-carnitine] and `Cn1c(=O)c2c(ncn2C)n(C)c1=O` [caffeine] are within error of each other in “percentage of apoptotic cells” value: 5.2±1.2% for the first, 6.9±1.1% for the second.

With `Oc1ccc(C=Cc2cc(O)cc(O)c2)cc1` [resveratrol] the “percentage of apoptotic cells” value was 19.0±1.1%.

— patent publication US20180243211A1, “A PHARMACEUTICAL COMPOSITION FOR REDUCING LOCAL FAT AND USES THEREOF” (Caliway Biopharmaceuticals Co., Ltd., priority 2015, published 2018)
